Test systems include KM12; TK-10; SK-MEL-5; MCF7; MDA-MB-435; HOP-92; K562; Hs-578T; IGROV-1; HOP-62; LOX IMVI; NCI-H23; SF-539; HL-60; SK-MEL-28; BT-549; SNB-75; RXF 393; SK-MEL-2; RPMI-8226.
Common to all, as to experiment: DTP human tumour cell line panel, 48 h

Usually GI50 stands for the concentration that inhibits growth by half.

Counter-ions that a name gives are not always drawn.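 Following 48 hours of exposure in 96-well plates, responses at five concentrations were used to interpolate endpoints linearly. GI50 marks 50% less growth.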 The source made the active and inactive calls. Rule as the data show it: active = GI50 up to about 1.1 µM and inactive = higher. A value given as a limit tells only on which side of the number the result lay.

Take `CCOC(=O)c1cn(C)nc1N/C(C)=C\C(=O)c1ccccc1`: the GI50 in the experiment with KM12, with TK-10, with SK-MEL-5, in the experiment on MCF7, in the experiment on MDA-MB-435 and with HOP-92 was > 100 µM (inactive) in each case. Further, the GI50 in the experiment with K562 was > 100 µM (inactive); in the experiment with Hs-578T it was > 100 µM (inactive); with IGROV-1, > 100 µM (inactive); in the experiment with HOP-62, 33 µM (inactive); with LOX IMVI, 90.8 µM (inactive); in the experiment with NCI-H23, > 100 µM (inactive). The GI50 in the experiment with SF-539 was 83.2 µM (inactive); in the experiment with HL-60, > 100 µM (inactive); in the experiment on SK-MEL-28, > 100 µM (inactive); in the experiment with BT-549, > 100 µM (inactive).
Regarding `CCNC(=O)Nc1cccc(C)n1`, the GI50 with KM12, in the experiment with TK-10, in the experiment on SK-MEL-5, in the experiment on MCF7, in the experiment on MDA-MB-435 and with HOP-92 was > 100 µM (inactive) in each case. The GI50 is > 100 µM (inactive) with K562; > 100 µM (inactive) with Hs-578T; > 100 µM (inactive) in the experiment on IGROV-1; 91.4 µM (inactive) in the experiment with HOP-62; > 100 µM (inactive) in the experiment on NCI-H23; > 100 µM (inactive) with SF-539. The GI50 is 68.9 µM (inactive) in the experiment on SNB-75; > 100 µM (inactive) in the experiment on RXF 393; 67.8 µM (inactive) in the experiment with HL-60; > 100 µM (inactive) in the experiment on SK-MEL-28; > 100 µM (inactive) in the experiment on BT-549.
In the case of `Cn1c(COC(=O)NC2CCCCC2)c(COC(=O)NC2CCCCC2)c2ccc3cc(Cl)c(Cl)cc3c21`, the GI50 in the experiment on KM12 was 15.6 µM (inactive); in the experiment on TK-10, 16.7 µM (inactive); with SK-MEL-5, 11.7 µM (inactive); in the experiment with MCF7, 4.03 µM (inactive); in the experiment on MDA-MB-435 it was 17.6 µM (inactive); in the experiment on HOP-92, 4.88 µM (inactive). Besides, the GI50 was 3.61 µM (inactive) with K562; 3.66 µM (inactive) in the experiment with Hs-578T; 17 µM (inactive) with IGROV-1; 14.1 µM (inactive) in the experiment with SK-MEL-2; 13.6 µM (inactive) with LOX IMVI; 15.6 µM (inactive) with NCI-H23. The GI50 is 14.8 µM (inactive) in the experiment with SF-539; 8.39 µM (inactive) in the experiment with SNB-75; 6.12 µM (inactive) with RXF 393; 9.62 µM (inactive) with HL-60; 12.5 µM (inactive) in the experiment on SK-MEL-28; 16.4 µM (inactive) with BT-549.
Take `COc1ccc2cc(-c3nc(N)nc(N4N=C(C)CC4(C)C)n3)c(=N)oc2c1`: the GI50 was 15.9 µM (inactive) in the experiment on KM12; 32.6 µM (inactive) in the experiment on TK-10; 16.2 µM (inactive) with SK-MEL-5; 16.7 µM (inactive) in the experiment on MCF7; 18.5 µM (inactive) in the experiment with MDA-MB-435; 19.7 µM (inactive) with HOP-92. Also, the GI50 with K562 is 16.4 µM (inactive); in the experiment with RPMI-8226 it was 16 µM (inactive); in the experiment on Hs-578T, 23.2 µM (inactive); in the experiment on IGROV-1 it was 14.8 µM (inactive); in the experiment on SK-MEL-2 it was 17.5 µM (inactive); with HOP-62, 22.2 µM (inactive). Moreover, the GI50 with NCI-H23 is 16.5 µM (inactive); in the experiment with SF-539 it was 16 µM (inactive); in the experiment with RXF 393, 23.4 µM (inactive); in the experiment on HL-60, 19.9 µM (inactive); with SK-MEL-28, 16.9 µM (inactive); with BT-549 it was 18.6 µM (inactive).
In the case of `[O-][n+]1c2cccc(O)c2[n+]([O-])c2cccc(O)c21`, the GI50 in the experiment with KM12 was 37.5 µM (inactive); in the experiment on TK-10, 23.4 µM (inactive); in the experiment with SK-MEL-5, 53.5 µM (inactive); in the experiment on MCF7, 20.7 µM (inactive); in the experiment with MDA-MB-435, > 100 µM (inactive); in the experiment with HOP-92, 22.7 µM (inactive). The GI50 in the experiment on K562 is 39.2 µM (inactive); in the experiment on RPMI-8226 it was 18.6 µM (inactive); with Hs-578T it was > 100 µM (inactive); with IGROV-1, 6.53 µM (inactive); in the experiment on HOP-62, 27.9 µM (inactive); in the experiment with LOX IMVI it was 56.8 µM (inactive). For the same compound, the GI50 in the experiment on NCI-H23 is 94.6 µM (inactive); in the experiment on SF-539, 32.7 µM (inactive); with SNB-75, > 100 µM (inactive); in the experiment on RXF 393, 60.4 µM (inactive); in the experiment with HL-60 it was 47.9 µM (inactive); with BT-549 it was 46 µM (inactive).
On to `C=CCOC(=O)CC[N+]1=CCC(c2ccccc2)(c2ccccc2)O1`, for which the GI50 with KM12, in the experiment with TK-10, with SK-MEL-5, with MCF7, in the experiment with MDA-MB-435 and in the experiment on HOP-92 was > 100 µM (inactive) in each case. For the same compound, the GI50 with K562, in the experiment with Hs-578T, in the experiment with IGROV-1, in the experiment on SK-MEL-2, in the experiment on HOP-62 and with NCI-H23 was > 100 µM (inactive) in each case. The GI50 in the experiment on SF-539, in the experiment with RXF 393, in the experiment on SK-MEL-28 and in the experiment with BT-549 was > 100 µM (inactive) throughout.
For `Cc1ccc(/C=C/C(=O)Oc2ccc(/C=C3\CCC/C(=C\c4ccc(OC(=O)/C=C/c5ccc(C)cc5)cc4)C3=O)cc2)cc1`, the GI50 in the experiment on KM12 was > 100 µM (inactive); with TK-10, 31.4 µM (inactive); with SK-MEL-5, > 100 µM (inactive); in the experiment on MCF7, > 100 µM (inactive); with MDA-MB-435, > 100 µM (inactive); in the experiment on HOP-92, 77.6 µM (inactive). Also, the GI50 with RPMI-8226 was > 100 µM (inactive); with Hs-578T it was 19 µM (inactive); in the experiment with SK-MEL-2, 48.3 µM (inactive); in the experiment with HOP-62, 29.1 µM (inactive); in the experiment on LOX IMVI, > 100 µM (inactive); in the experiment with NCI-H23, > 100 µM (inactive). For the same compound, the GI50 is 21.3 µM (inactive) with SF-539; 14.2 µM (inactive) in the experiment with SNB-75; 57.4 µM (inactive) in the experiment on HL-60; > 100 µM (inactive) in the experiment with SK-MEL-28; > 100 µM (inactive) with BT-549.
Take `Cn1ccnc1CCc1ccc(F)cc1F`: the GI50 in the experiment with KM12, with TK-10, in the experiment on SK-MEL-5, in the experiment on MCF7, with MDA-MB-435 and in the experiment with K562 was > 100 µM (inactive) in each case. Further, the GI50 in the experiment with RPMI-8226, in the experiment on Hs-578T, in the experiment on IGROV-1, in the experiment on SK-MEL-2, in the experiment with HOP-62 and in the experiment with LOX IMVI was > 100 µM (inactive) throughout. Moreover, the GI50 in the experiment on NCI-H23, with SF-539, in the experiment on SNB-75, in the experiment on RXF 393, in the experiment with HL-60 and in the experiment with SK-MEL-28 was > 100 µM (inactive) in each case. In the experiment on BT-549, the GI50 was > 100 µM (inactive).
Turning to `CC(C)C(C/C=C1/CC(CO)(COC(=O)CC(C(C)C)C(C)C)OC1=O)C(C)C` (stereo not drawn), the GI50 was 6.82 µM (inactive) in the experiment with KM12; 2.08 µM (inactive) in the experiment on TK-10; 10.4 µM (inactive) with SK-MEL-5; 13.6 µM (inactive) with MCF7; 0.475 µM (active) in the experiment on MDA-MB-435; 0.998 µM (active) with HOP-92. Further, the GI50 in the experiment on K562 is 0.389 µM (active); in the experiment on Hs-578T, 0.102 µM (active); in the experiment on IGROV-1, 17.1 µM (inactive); in the experiment with SK-MEL-2 it was 15.2 µM (inactive); in the experiment on HOP-62, 1.34 µM (inactive); in the experiment with LOX IMVI, 5.27 µM (inactive). For the same compound, the GI50 is 14.7 µM (inactive) in the experiment on NCI-H23; 11.2 µM (inactive) in the experiment on SF-539; 1.78 µM (inactive) with SNB-75; 11.1 µM (inactive) in the experiment on RXF 393; 0.0931 µM (active) in the experiment with HL-60; 14.2 µM (inactive) in the experiment on SK-MEL-28. In the experiment on BT-549, the GI50 is 15 µM (inactive).
In the case of `CC1(C)O[C@@H]2COC(=O)[C@@H]2O1`, the GI50 in the experiment with KM12, with TK-10, in the experiment with SK-MEL-5, with MCF7, in the experiment with MDA-MB-435 and with HOP-92 was > 100 µM (inactive) each time. Further, the GI50 in the experiment on K562, in the experiment with Hs-578T, in the experiment with IGROV-1, with SK-MEL-2, with LOX IMVI and in the experiment on NCI-H23 was > 100 µM (inactive) each time. Also, the GI50 in the experiment with SF-539 is 2.95 µM (inactive); in the experiment with SNB-75 it was > 100 µM (inactive); in the experiment on RXF 393, > 100 µM (inactive); in the experiment with HL-60, > 100 µM (inactive); with SK-MEL-28 it was > 100 µM (inactive); in the experiment on BT-549, > 100 µM (inactive).
`C=C1C[C@@H]2CC[C@@]34C[C@H]5O[C@H]6[C@@H](O3)[C@H]3O[C@H](CC[C@@H]3O[C@H]6[C@H]5O4)CC(=O)C[C@@H]3[C@@H](OC)[C@@H](C[C@H](O)CN)O[C@H]3C[C@H]3O[C@@H](CC[C@@H]1O2)C[C@@H](C)C3=C` [ERIBULIN MESYLATE]: the GI50 in the experiment with KM12 is 0.000326 µM (active); in the experiment on TK-10 it was 0.0815 µM (active); in the experiment with SK-MEL-5, 0.000877 µM (active); in the experiment on MCF7 it was 0.000383 µM (active); with MDA-MB-435 it was 5.96e-05 µM (active); in the experiment with HOP-92, 0.00352 µM (active). The GI50 with K562 is 0.000916 µM (active); in the experiment on RPMI-8226, 0.000516 µM (active); in the experiment on Hs-578T, 0.0022 µM (active); in the experiment on IGROV-1, 0.00151 µM (active); in the experiment with SK-MEL-2, 0.00607 µM (active); with HOP-62, 0.00412 µM (active). Further, the GI50 in the experiment with LOX IMVI was 0.0014 µM (active); in the experiment with NCI-H23 it was 0.00109 µM (active); in the experiment with SF-539, 0.000465 µM (active); in the experiment with SK-MEL-28 it was 0.00361 µM (active); with BT-549, 0.00703 µM (active).

Values taken from ChEMBL document CHEMBL1201862, “PubChem BioAssay data set” (2004).
